Laboratory results from PubChem BioAssay AID2060599 (Molecular Pharmacology Branch, DTP, NCI, 2025).

System: 817829-284-R-J1-PDC complex spheroids, viability
Assay: Anticancer human tumor 817829-284-R-J1-PDC patient-derived colon adenocarcinoma cell line growth inhibition [CLK]
Settings: for IC50: curve of first compound; for viability, T/C: stronger effect = lower value
Summary of the method: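 Patient-derived tumor cells grown as complex spheroids with HUVEC endothelial cells and mesenchymal stem cells, treated with drug combinations. Concentrations descend in half-log steps from near clinical Cmax, or from 10 microM if Cmax unknown.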

[1] = second compound 0.0316 µM, first compound 0.0316 µM
[2] = second compound 0.0316 µM, first compound 0.1 µM
[3] = second compound 0.1 µM, first compound 0.0316 µM
[4] = second compound 0.1 µM, first compound 0.1 µM
[5] = second compound 0.316 µM, first compound 0.0316 µM
[6] = second compound 0.316 µM, first compound 0.1 µM
[7] = second compound 1 µM, first compound 0.0316 µM
[8] = second compound 1 µM, first compound 0.1 µM
[9] = second compound 3.16 µM, first compound 0.0316 µM
[10] = second compound 3.16 µM, first compound 0.1 µM
[11] = second compound 10 µM, first compound 0.0316 µM
[12] = second compound 10 µM, first compound 0.1 µM
[13] = second compound 0.0316 µM, first compound 0.316 µM
[14] = second compound 0.0316 µM, first compound 1 µM
[15] = second compound 0.0316 µM, first compound 3.16 µM
[16] = second compound 0.0316 µM, first compound 10 µM
[17] = second compound 0.1 µM, first compound 0.316 µM
[18] = second compound 0.1 µM, first compound 1 µM
[19] = second compound 0.1 µM, first compound 3.16 µM
[20] = second compound 0.1 µM, first compound 10 µM
[21] = second compound 0.316 µM, first compound 0.316 µM
[22] = second compound 0.316 µM, first compound 1 µM
[23] = second compound 0.316 µM, first compound 3.16 µM
[24] = second compound 0.316 µM, first compound 10 µM
[25] = second compound 1 µM, first compound 0.316 µM
[26] = second compound 1 µM, first compound 1 µM
[27] = second compound 1 µM, first compound 3.16 µM
[28] = second compound 1 µM, first compound 10 µM
[29] = second compound 3.16 µM, first compound 0.316 µM
[30] = second compound 3.16 µM, first compound 1 µM
[31] = second compound 3.16 µM, first compound 3.16 µM
[32] = second compound 3.16 µM, first compound 10 µM
[33] = second compound 10 µM, first compound 0.316 µM
[34] = second compound 10 µM, first compound 1 µM
[35] = second compound 10 µM, first compound 3.16 µM
[36] = second compound 10 µM, first compound 10 µM
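Further: spheroids exposed to the agents for seven days before readout.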

Compound: Cn1ncnc1[C@H]1c2n[nH]c(=O)c3cc(F)cc(c23)N[C@@H]1c1ccc(F)cc1 + CN1CCN(c2cc(C(=O)Nc3cc4cc(-c5cnn(C)c5)ccc4cn3)ccn2)CC1
- IC50 (second compound 0.0316 µM): 2.58 nM
- IC50 (second compound 0.1 µM): < 0.316 nM
- IC50 (second compound 0.316 µM): < 0.316 nM
- IC50 (second compound 1 µM): < 0.316 nM
- IC50 (second compound 3.16 µM): < 0.316 nM
- IC50 (second compound 10 µM): < 0.316 nM
- viability, T/C (second compound 0.0316 µM, first compound 0.000316 µM): 60.1%
- viability, T/C (second compound 0.0316 µM, first compound 0.001 µM): 54.6%
- viability, T/C (second compound 0.0316 µM, first compound 0.00316 µM): 47.3%
- viability, T/C (second compound 0.0316 µM, first compound 0.01 µM): 43.5%
- viability, T/C [1]: 32.6%
- viability, T/C [2]: 24.1%
- viability, T/C (second compound 0.1 µM, first compound 0.000316 µM): 13.6%
- viability, T/C (second compound 0.1 µM, first compound 0.001 µM): 14%
- viability, T/C (second compound 0.1 µM, first compound 0.00316 µM): 15.3%
- viability, T/C (second compound 0.1 µM, first compound 0.01 µM): 14%
- viability, T/C [3]: 15.8%
- viability, T/C [4]: 14.7%
- viability, T/C (second compound 0.316 µM, first compound 0.000316 µM): 1.91%
- viability, T/C (second compound 0.316 µM, first compound 0.001 µM): 2.09%
- viability, T/C (second compound 0.316 µM, first compound 0.00316 µM): 2.16%
- viability, T/C (second compound 0.316 µM, first compound 0.01 µM): 1.96%
- viability, T/C [5]: 1.91%
- viability, T/C [6]: 1.89%
- viability, T/C (second compound 1 µM, first compound 0.000316 µM): 0.11%
- viability, T/C (second compound 1 µM, first compound 0.001 µM): 0.08%
- viability, T/C (second compound 1 µM, first compound 0.00316 µM): 0.09%
- viability, T/C (second compound 1 µM, first compound 0.01 µM): 0.09%
- viability, T/C [7]: 0.08%
- viability, T/C [8]: 0.09%
- viability, T/C (second compound 3.16 µM, first compound 0.000316 µM): 0.1%
- viability, T/C (second compound 3.16 µM, first compound 0.001 µM): 0.11%
- viability, T/C (second compound 3.16 µM, first compound 0.00316 µM): 0.14%
- viability, T/C (second compound 3.16 µM, first compound 0.01 µM): 0.1%
- viability, T/C [9]: 0.15%
- viability, T/C [10]: 0.11%
- viability, T/C (second compound 10 µM, first compound 0.000316 µM): 0.04%
- viability, T/C (second compound 10 µM, first compound 0.001 µM): 0.05%
- viability, T/C (second compound 10 µM, first compound 0.00316 µM): 0.08%
- viability, T/C (second compound 10 µM, first compound 0.01 µM): 0.06%
- viability, T/C [11]: 0.07%
- viability, T/C [12]: 0.09%

Compound: Nc1ccn(C2OC(CO)C(O)C2(F)F)c(=O)n1 (stereo unspecified) + CN1CCN(c2cc(C(=O)Nc3cc4cc(-c5cnn(C)c5)ccc4cn3)ccn2)CC1
- IC50 (second compound 0.0316 µM): < 31.6 nM
- IC50 (second compound 0.1 µM): < 31.6 nM
- IC50 (second compound 0.316 µM): < 31.6 nM
- IC50 (second compound 1 µM): < 31.6 nM
- IC50 (second compound 3.16 µM): < 31.6 nM
- IC50 (second compound 10 µM): < 31.6 nM
- viability, T/C [1]: 4.65%
- viability, T/C [2]: 4.62%
- viability, T/C [13]: 3.63%
- viability, T/C [14]: 3.9%
- viability, T/C [15]: 3.03%
- viability, T/C [16]: 1.88%
- viability, T/C [3]: 3.65%
- viability, T/C [4]: 3.83%
- viability, T/C [17]: 3.7%
- viability, T/C [18]: 3.47%
- viability, T/C [19]: 3.1%
- viability, T/C [20]: 1.72%
- viability, T/C [5]: 1.66%
- viability, T/C [6]: 1.94%
- viability, T/C [21]: 1.74%
- viability, T/C [22]: 1.53%
- viability, T/C [23]: 1.54%
- viability, T/C [24]: 0.9%
- viability, T/C [7]: 0.14%
- viability, T/C [8]: 0.08%
- viability, T/C [25]: 0.09%
- viability, T/C [26]: 0.07%
- viability, T/C [27]: 0.14%
- viability, T/C [28]: 0.07%
- viability, T/C [9]: 0.11%
- viability, T/C [10]: 0.14%
- viability, T/C [29]: 0.17%
- viability, T/C [30]: 0.09%
- viability, T/C [31]: 0.11%
- viability, T/C [32]: 0.09%
- viability, T/C [11]: 0.05%
- viability, T/C [12]: 0.09%
- viability, T/C [33]: 0.09%
- viability, T/C [34]: 0.09%
- viability, T/C [35]: 0.11%
- viability, T/C [36]: 0.11%

Compound: O=c1[nH]cc(F)c(=O)[nH]1 + CN1CCN(c2cc(C(=O)Nc3cc4cc(-c5cnn(C)c5)ccc4cn3)ccn2)CC1
- IC50 (second compound 0.0316 µM): 851 nM
- IC50 (second compound 0.1 µM): < 31.6 nM
- IC50 (second compound 0.316 µM): < 31.6 nM
- IC50 (second compound 1 µM): < 31.6 nM
- IC50 (second compound 3.16 µM): < 31.6 nM
- IC50 (second compound 10 µM): < 31.6 nM
- viability, T/C [1]: 72.7%
- viability, T/C [2]: 66.3%
- viability, T/C [13]: 57.1%
- viability, T/C [14]: 52.4%
- viability, T/C [15]: 33.8%
- viability, T/C [16]: 26.3%
- viability, T/C [3]: 18.2%
- viability, T/C [4]: 17.6%
- viability, T/C [17]: 22.3%
- viability, T/C [18]: 20.8%
- viability, T/C [19]: 18.9%
- viability, T/C [20]: 15.9%
- viability, T/C [5]: 2.25%
- viability, T/C [6]: 2.52%
- viability, T/C [21]: 1.94%
- viability, T/C [22]: 2.49%
- viability, T/C [23]: 2.36%
- viability, T/C [24]: 2.06%
- viability, T/C [7]: 0.14%
- viability, T/C [8]: 0.12%
- viability, T/C [25]: 0.18%
- viability, T/C [26]: 0.07%
- viability, T/C [27]: 0.07%
- viability, T/C [28]: 0.05%
- viability, T/C [9]: 0.14%
- viability, T/C [10]: 0.11%
- viability, T/C [29]: 0.11%
- viability, T/C [30]: 0.1%
- viability, T/C [31]: 0.15%
- viability, T/C [32]: 0.14%
- viability, T/C [11]: 0.07%
- viability, T/C [12]: 0.08%
- viability, T/C [33]: 0.1%
- viability, T/C [34]: 0.11%
- viability, T/C [35]: 0.13%
- viability, T/C [36]: 0.08%
